The record followed here is patent US9988607B2, “Artificial three-dimensional microenvironment niche culture and methods of using the same” (priority 2008, dated 2018).

Assay type in all cases: cell-based, human
Experiment [1] relates to OCT3/4, SOX2, LIN28, KLF4 promoters. The experiment is described as follows: Promoter-GFP reporter screen of compound library in HDF cells in 3D hyaluronan hydrogel niche culture. The conditions noted are these: for Activation of expression of one or more of the target promoters: GFP fluorescence after 4 days of incubation, normalized to ViPS control; for Optimized Concentration: empirically determined through repeat experiments with a broad range of concentrations. Here is the method: (§1) Replicate microspots were prepared in Complete Media and transfected with reporter constructs for genes critically expressed in pluripotent cells. The reporter constructs contained promoter regions of one of the genes listed in Table 6 operably linked to a green fluorescent protein (GFP) coding region in pGlow TOPO TA (Invitrogen).
(§2) Briefly, a transient transfection mixture containing Lipofectamine 2000 (0.4 μl/24 μl total hyaluronan volume, Invitrogen) and promoter-Green Fluorescent Protein (GFP) construct in (500 ng) was added to each microspot.
(§3) Library screening was performed by including dilution series of each compound in mTeSR-1 medium, to HDF cells embedded in 3D hyaluronan hydrogel microenvironment niche culture optimized as described above in EXAMPLES 1 and 2.
(§4) After 4 days of incubation with target compounds, relative fluorescence from expression of the GFP constructs was recorded using a fluorescent microplate reader. Values were normalized to reflect percent fluorescence of control (ViPS) cells.
Compounds that activated expression of one or more of the target promoters were scored as positive.

The test system of experiment [2] is HDF cells. The experiment is described as follows: ViPS pluripotency factor replacement: chemical induction of iPS colonies in 3D microenvironment niche culture. The conditions noted are these: HDF in 3D ES cell microenvironment niche culture; preliminary. An excerpt:
To test the possibility of chemical induction of pluripotency in human dermal fibroblasts, well known compounds affecting these pluripotency factors were substituted for expression of the pluripotency factors from viral expression vectors. Candidate compounds included those that affect the Wnt pathway because activation of this pathway had been reported to be involved in OCT 3/4, Sox-2, and Nanog activation. The initial compounds tested included: BIO (6-bromoindirubin-3′-oxime), a specific pharmacological inhibitor of glycogen synthase kinase known to stimulate Wnt signaling and maintain pluripotency in human and mouse embryonic stem cells (Sato et al., Nat. Med. (2004) 10:55-63); prostaglandin E2 (PGE2), reported to be an activator of Wnt pathway via “cross talk” at the beta-catenin signal level; valproic acid, a histone deacetylase (HDAC) inhibitor, and Wnt pathway activator (Bug et al. (2005) Cancer Res 65:2537-41). […] These compounds were chosen for further experimentation since their mechanism of activity was previously determined and they appeared to activate the pluripotency signal transduction pathway (e.g. Wnt pathway).
Compounds were added to HDF cells grown in 3D ES cell microenvironment niche cultures (prepared as described above in EXAMPLES 1 and 2), to evaluate whether they would rescue iPS phenotype in the absence of individual pluripotency factors introduced retrovirally. ViPS cells, induced with lentiviral transduction of pluripotency factor genes (OCT4, Sox2, Nanog, Klf4) as described by Takahashi et al. ((2007), Cell 131:1-12). Data is presented as the number of colonies with iPS morphology observed per 100,000 host cells.
Stem cell self renewal optimized 3-D hydrogel ES microenvironment niche conditions (as described in EXAMPLEs 1 and 2) were found necessary for chemical induction of iPS state. Pluripotency was not observed when standard tissue culture plates or those coated with Matrigel or methylcellulose were substituted for the 3D microenvironment conditions.

In experiment [3] the test system is SOX2 promoter. As to the kind of experiment: Promoter-GFP reporter screen in HDF cells, SOX2 promoter. To be noted: FIG. 7. The method, then:
as §1, §2, §3, §4

The subject of experiment [4] is OCT4 promoter. The experiment is described as follows: Promoter-GFP reporter screen in HDF cells, OCT4 promoter. The conditions noted are these: FIG. 7. The method, then: as §1, §2, §3, §4

Each structure is given as a SMILES string.

For the compound `O=C1Nc2ccc([N+](=O)[O-])cc2C1=C1Nc2ccccc2C1=NO` [D3-8976, Indirubin-5-nitro-3′-oxime], in experiment [1], the “Activation of expression of one or more of the target promoters” value (“Activation” for short) is reported as “positive” and the “Optimized Concentration” value was 4 µM.

In the case of `Br.Cc1ccc(C(=O)Cn2c3c(sc2=N)CCCC3)cc1` [D12-2234, 1-(4-Methylphenyl)-2-(4,5,6,7-tetrahydro-2-imino-3(2H)-benzothiazolyl)ethanone HBr], in experiment [1], the “Activation” value was “positive” and the “Optimized Concentration” value amounted to 30 µM.

Turning to `O=C1Nc2cc(Br)ccc2/C1=C1/Nc2ccccc2/C1=N\O` [D9-6452, 6-bromoindirubin-3′-oxime], the “Replacement of virally transduced pluripotency factors (colonies with iPS morphology per 100,000 host cells)” value in experiment [2] was “could be used to replace virally transduced pluripotency factors”. In experiment [1], the “Activation” value is on record as “positive” and the “Optimized Concentration” value worked out at 4 µM.

Regarding `Cc1cccc(-c2n[nH]cc2-c2ccc3ncccc3n2)n1` [D21-8765, 2-(3-(6-Methylpyridin-2-yl)-1H-pyrazol-4-yl)-1,5-naphthyridine], in experiment [1], the “Activation” value was “positive” and the “Optimized Concentration” value came out at 25000 µM.

For the compound `CCCCC[C@H](O)/C=C/[C@H]1C(=O)C=C[C@@H]1C/C=C\CCCC(=O)O` [D9-9811, Prostaglandin J2], in experiment [2], the “Replacement of virally transduced pluripotency factors (colonies with iPS morphology per 100,000 host cells)” value was “could be used to replace virally transduced pluripotency factors”. In experiment [1], the “Activation” value is listed as “positive” and the “Optimized Concentration” value turned out to be 10 µM.

With `CCCC(CCC)C(=O)O` [D10-8976, Valproic Acid], in experiment [2], the “Replacement of virally transduced pluripotency factors (colonies with iPS morphology per 100,000 host cells)” value is reported as “could be used to replace virally transduced pluripotency factors”. Moreover, in experiment [1], the “Activation” value is “positive” and the “Optimized Concentration” value was 2000 µM. Moreover, the “Expression of SOX2 promoter” value in experiment [3] is “stimulate expression”. The “Expression of OCT4 promoter” value in experiment [4] was “stimulate expression”.

Consider `CCCCC[C@H](O)/C=C/[C@H]1[C@H](O)CC(=O)[C@@H]1C/C=C\CCCC(=O)O` [D2-6542, Prostaglandin E2], for which, in experiment [2], the “Replacement of virally transduced pluripotency factors (colonies with iPS morphology per 100,000 host cells)” value was “could be used to replace virally transduced pluripotency factors”. In addition, in experiment [1], the “Activation” value is “positive” and the “Optimized Concentration” value was 10 µM.
